Laboratory results: patent US8207176B2 (Glaxo Group Limited, priority 2005, dated 2012)

Columns and labels:
[1] = target: T1, Recombinant human p38α (MKK6-activated) (Homo sapiens, UniProt Q16539); test: Time-resolved fluorescence resonance energy transfer (TR-FRET) kinase assay (standard or low volume); assay type: biochemical; set-up: key: Compounds are considered active in this assay if they demonstrate a pIC50 of greater than 4.6 up to about a pIC50 of greater than 10.0; settings: MKK6-activated p38α 100 pM, GST-ATF2 400 nM, 120 minutes at room temperature; either assay format
T1 construct: His; made in house
T1 sequence (Q16539 whole entry): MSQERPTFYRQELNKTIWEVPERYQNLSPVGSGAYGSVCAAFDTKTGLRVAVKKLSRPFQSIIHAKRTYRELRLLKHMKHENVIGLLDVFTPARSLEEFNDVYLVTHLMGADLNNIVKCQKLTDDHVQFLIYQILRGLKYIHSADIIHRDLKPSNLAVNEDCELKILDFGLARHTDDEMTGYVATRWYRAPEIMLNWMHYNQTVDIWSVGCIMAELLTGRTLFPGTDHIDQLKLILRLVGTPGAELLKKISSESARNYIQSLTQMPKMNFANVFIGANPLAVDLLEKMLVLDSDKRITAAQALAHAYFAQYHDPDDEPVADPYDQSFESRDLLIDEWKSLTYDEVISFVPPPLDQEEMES
Protocol: It is noted that there are two assay formats shown above for the Fluorescence anisotropy kinase binding assay. The only difference between these two assays is the volume used and the plate type. […] The results described herein may have been performed in either assay format and are not differentiated as to which. […] TR-FRET Assay Time-Resolved Fluorescence Resonance Energy Transfer Kinase Standard Assay Recombinant human p38α was expressed as a His-tagged protein. To activate this protein, 3 μM unactivated p38α was incubated in 200 mM Hepes pH 7.4, 625 mM NaCl, 1 mM DTT with 27 nM active MKK6 (Upstate), 1 mM ATP and 10 mM MgCl2 The activity of the MKK6-activated p38α was assessed using a time-resolved fluorescence resonance energy transfer (TR-FRET) assay. Biotinylated-GST-ATF2 (residues 19-96, 400 nM final), ATP ([…]) and MgCl2 (5 mM final) in assay buffer (40 mM HEPES pH 7.4, 1 mM DTT) were added to wells containing 1 ul of various concentrations of compound or DMSO vehicle (3% final) in NUNC 384 well black plate. The reaction was initiated by the addition of MKK6-activated p38 (100 pM final) to give a total volume of 30 ul. The reaction was incubated for 120 minutes at room temperature, then terminated by the addition of 15 μl of 100 mM EDTA pH 7.4. Detection reagent (15 μl) in buffer (100 mM HEPES pH 7.4, 150 mM NaCl, 0.1% w/v BSA, 1 mM DTT) containing antiphosphothreonine-ATF2-71 polyclonal antibody (Cell Signalling Technology, Beverly Mass., USA) labelled with W-1024 europium chelate (Wallac OY, Turku, Finland), and APC-labelled streptavidin (Prozyme, San Leandro, Calif., USA) was added and the reaction was further incubated for 60 minutes at room temperature. The degree of phosphorylation of GST-ATF2 was measured using a Packard Discovery plate reader (Perkin-Elmer Life Sciences, Pangbourne, UK) as a ratio of specific 665 nm energy transfer signal to reference europium 620 nm signal. Time-Resolved Fluorescence Resonance Energy Transfer Kinase Low Volume Assay Recombinant human p38α was expressed as a His-tagged protein. To activate this protein, 3 μM unactivated p38α was incubated in 200 mM Hepes pH7.4, 625 mM NaCl, 1 mM DTT with 27 nM active MKK6 (Upstate), 1 mM ATP and 10 mM MgCl2 The activity of the MKK6-activated p38α was assessed using a time-resolved fluorescence resonance energy transfer (TR-FRET) assay. Biotinylated-GST-ATF2 (residues 19-96, 400 nM final), ATP (125 μM final) and MgCl2 ([…]) in assay buffer (40 mM HEPES pH 7.4, 1 mM DTT) were added to wells containing 0.1 μl of various concentrations of compound or DMSO vehicle (1.7% final) in Greiner low volume 384 well black plate. The reaction was initiated by the addition of MKK6-activated p38α (100 pM final) to give a total volume of 6 μl. The reaction was incubated for 120 minutes at room temperature, then terminated by the addition of 3 μl of detection reagent in buffer (100 mM HEPES pH 7.4, 150 mM NaCl, 0.1% w/v BSA, 1 mM DTT, 100 mM EDTA) containing antiphosphothreonine-ATF2-71 polyclonal antibody (Cell Signalling Technology, Beverly Mass., USA) labelled with W-1024 europium chelate (Wallac OY, Turku, Finland), and APC-labelled streptavidin (Prozyme, San Leandro, Calif., USA). The reaction was further incubated for 60 minutes at room temperature. The degree of phosphorylation of GST-ATF2 was measured using a BMG Rubystar plate reader (BMG, UK) as a ratio of specific 665 nm energy transfer signal to reference europium 620 nm signal. It is noted that there are two assay formats shown above for the Time-resolved fluorescence resonance energy transfer kinase assay. The only difference between these two assays is the volume used and the plate type. […] The results described herein may have been performed in either assay format and are not differentiated as to which. […] For purposes herein the HTRF assay and the Fluorescence anisotropy kinase binding assay: […]

[2] = system: influx of neutrophils to the lung in LPS-challenged rats; test: Rat LPS neutrophilia model; assay type: in vivo; settings: intratracheal, LPS aerosol 100 ug/ml 15 min, lavage 4 hours later, in at least one of the range of conditions tested, significant p<0.05, nonsignificant p>0.05
In short: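 Compound was given intratracheally (200 ul, suspension or dry powder) 15 min–24 hours before a 15 min aerosol of LPS (100 ug/ml). Bronchoalveolar lavage was taken 4 hours after challenge for differential cell counts. Values are % inhibition of neutrophils versus no-compound controls at a given concentration and pretreat time.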

[3] = system: synthesis of IL-6, IL-8, GM-CSF, RANTES and COX-2; settings: a number of different cell types; cited from earlier work
[4] = system: TGF-β-induced increases in fibronectin and thrombospondin; settings: cited from earlier work

Structure (SMILES)	melting point	inhibition of neutrophilia (neutrophil levels in lung lavage relative to no compound controls) [2]	also measured
Cc1c(F)cc(C(=O)NC2CC2)cc1-c1nc(NC(CO)CO)nc2c1ccc(=O)n2-c1c(F)cccc1F [18(e)]	214.2 to 217.5 °C	–	pIC50, reported as active [1]: active
Cc1ccc(C(=O)NC2CC2)cc1-c1nc(NC2CC(C)(C)NC(C)(C)C2)nc2c1ccc(=O)n2-c1c(F)cccc1F [21(c)]	326.3 to 327.9 °C	–	–
Cc1ccc(C(=O)NCc2ccccc2)cc1-c1nc(NCc2ncc[nH]2)nc2c1ccc(=O)n2-c1c(F)cccc1F [116(c), 3-{8-(2,6-difluorophenyl)-2-[(1H-imidazol-2-ylmethyl)amino]-7-oxo-7,8-dihydropyrido[2,3-d]pyrimidin-4-yl}-4-methyl-N-(phenylmethyl)benzamide]	185 to 190 °C (dec.)	–	–
CCCNCCNc1nc(-c2cc(C(=O)NC3CC3)ccc2C)c2ccc(=O)n(-c3c(F)cccc3F)c2n1 [Example 24, N-cyclopropyl-3-(8-(2,6-difluorophenyl)-7-oxo-2-{[2-(propylamino)ethyl]amino}-7,8-dihydropyrido[2,3-d]pyrimidin-4-yl)-4-methylbenzamide]	120 to 134 °C	statistically nonsignificant inhibition	–
Cc1ccc(C(=O)NC2CC2)cc1-c1nc(NCCN(C)C)nc2c1ccc(=O)n2-c1c(F)cccc1F [Example 25]	214.7 to 217.5 °C	statistically nonsignificant inhibition	–
Cc1ccc(NC(=O)c2ccsc2)cc1-c1nc(N2CCC(N)CC2)nc2c1ccc(=O)n2-c1c(F)cccc1F [Example 32, N-{3-[2-(4-amino-1-piperidinyl)-8-(2,6-difluorophenyl)-7-oxo-7,8-dihydropyrido[2,3-d]pyrimidin-4-yl]-4-methylphenyl}-3-thiophenecarboxamide]	183.8 to 187.9 °C	statistically nonsignificant inhibition	–
CCCNC(=O)c1ccc(C)c(-c2nc(N(C)CCCN(C)C)nc3c2ccc(=O)n3-c2c(F)cccc2F)c1 [Example 104, 3-{8-(2,6-difluorophenyl)-2-[[3-(dimethylamino)propyl](methyl)amino]-7-oxo-7,8-dihydropyrido[2,3-d]pyrimidin-4-yl}-4-methyl-N-propylbenzamide]	104 to 109 °C	statistically significant inhibition	–
CCCNC(=O)c1ccc(C)c(-c2nc(NCCN(C)C)nc3c2ccc(=O)n3-c2c(F)cccc2F)c1 [Example 105, 3-(8-(2,6-difluorophenyl)-2-{[2-(dimethylamino)ethyl]amino}-7-oxo-7,8-dihydropyrido[2,3-d]pyrimidin-4-yl)-4-methyl-N-propylbenzamide]	139 to 142 °C	statistically significant inhibition	–
CCCNC(=O)c1ccc(C)c(-c2nc(NCCN(C)C(=O)OC(C)(C)C)nc3c2ccc(=O)n3-c2c(F)cccc2F)c1 [Example 106, 1,1-dimethylethyl {2-[(8-(2,6-difluorophenyl)-4-{2-methyl-5-[(propylamino)carbonyl]phenyl}-7-oxo-7,8-dihydro-pyrido[2,3-d]pyrimidin-2-yl)amino]ethyl}methylcarbamate]	115 to 118 °C	–	–
Cc1ccc(C(=O)NC(C)C)cc1-c1nc(NCCN(C)C)nc2c1ccc(=O)n2-c1c(F)cccc1F [Example 117, 3-(8-(2,6-difluorophenyl)-2-{[2-(dimethylamino)ethyl]amino}-7-oxo-7,8-dihydropyrido[2,3-d]pyrimidin-4-yl)-4-methyl-N-(1-methylethyl)benzamide]	–	statistically significant inhibition	pIC50, reported as active [1]: active
CCC(C)NC(=O)c1ccc(C)c(-c2nc(NCCCN(CC)CC)nc3c2ccc(=O)n3-c2c(F)cccc2F)c1 (stereo not shown) [Example 162, 3-[2-{[3-(diethylamino)propyl]amino}-8-(2,6-difluorophenyl)-7-oxo-7,8-dihydropyrido[2,3-d]pyrimidin-4-yl]-4-methyl-N-(1-methylpropyl)benzamide]	–	statistically nonsignificant inhibition	pIC50, reported as active [1]: active
C[S+]([O-])c1ccc(-c2nc(-c3ccncc3)c(-c3ccc(F)cc3)[nH]2)cc1 (stereo not shown) [SB-203580]	–	–	decreasing the synthesis of pro-inflammatory proteins including IL-6, IL-8, GM-CSF, RANTES and COX-2 [3]: effective
COc1nccc(-c2c(-c3ccc(F)cc3)ncn2C2CCNCC2)n1 [SB-242235]	–	–	effect on TGF-β-induced increases in fibronectin and thrombospondin [4]: inhibited
Fc1ccc(-c2nc3n(c2-c2ccncc2)CCS3)cc1 [SK&F 86002]	–	–	decreasing the synthesis of pro-inflammatory proteins including IL-6, IL-8, GM-CSF, RANTES and COX-2 [3]: effective
